Assays:
[1] = tested on: H1975 tumor cell line; assay: treatment of H1975 tumor cell line; assay type: cell-based; settings: H1975, EGFR T790M in combination with L858R
[2] = combined with paclitaxel, cisplatin, gemcitabine, and doxorubicin; cited from earlier work
[3] = tested on: A431 xenografts; settings: nude mice; cited from earlier work
[4] = tested on: HN5 xenografts; settings: nude mice; cited from earlier work

C#Cc1cccc(Nc2ncnc3cc(OCCOC)c(OCCOC)cc23)c1 [erlotinib]
response of tumor cell line to treatment [1]: exhibited resistance
interaction with chemotherapy agents [2]: additive interaction
growth inhibition of A431 xenografts [3]: marked growth inhibition
growth inhibition of HN5 xenografts [4]: marked growth inhibition
